Source: ChEMBL document CHEMBL4000244, “Probing A-form DNA: A fluorescent aminosugar probe and dual recognition by anthraquinone-neomycin conjugates” (Bioorg Med Chem, 2017)

Tests used:
[1] = Binding affinity to 5'-CGGGGGGG-3' DNA hairpin assessed as change in fluorescence intensity at 1 uM after 45 mins by fluorescence quenching analysis relative to control
[2] = Binding affinity to 5'-CCGCGCCC-3' DNA hairpin assessed as change in fluorescence intensity at 1 uM after 45 mins by fluorescence quenching analysis relative to control
[3] = Binding affinity to 5'-CCGGGCCC-3' DNA hairpin assessed as change in fluorescence intensity at 1 uM after 45 mins by fluorescence quenching analysis relative to control
[4] = Binding affinity to 5'-GGCCGGCG-3' DNA hairpin assessed as change in fluorescence intensity at 1 uM after 45 mins by fluorescence quenching analysis relative to control
[5] = Binding affinity to 5'-CGGCCCCG-3' DNA hairpin assessed as change in fluorescence intensity at 1 uM after 45 mins by fluorescence quenching analysis relative to control
[6] = Binding affinity to 5'-CCGCCCCC-3' DNA hairpin assessed as change in fluorescence intensity at 1 uM after 45 mins by fluorescence quenching analysis relative to control
[7] = Binding affinity to 5'-GGGGCCCC-3' DNA hairpin assessed as change in fluorescence intensity at 1 uM after 45 mins by fluorescence quenching analysis relative to control
[8] = Binding affinity to 5'-CGGCGGGG-3' DNA hairpin assessed as change in fluorescence intensity at 1 uM after 45 mins by fluorescence quenching analysis relative to control
[9] = Binding affinity to 5'-CGCGGGGG-3' DNA hairpin assessed as change in fluorescence intensity at 1 uM after 45 mins by fluorescence quenching analysis relative to control
[10] = Binding affinity to 5'-CCCCCCGG-3' DNA hairpin assessed as change in fluorescence intensity at 1 uM after 45 mins by fluorescence quenching analysis relative to control
[11] = Binding affinity to 5'-GCGCCCCG-3' DNA hairpin assessed as change in fluorescence intensity at 1 uM after 45 mins by fluorescence quenching analysis relative to control
[12] = Binding affinity to 5'-GCCGGGGG-3' DNA hairpin assessed as change in fluorescence intensity at 1 uM after 45 mins by fluorescence quenching analysis relative to control
[13] = Binding affinity to 5'-GCCGGCGG-3' DNA hairpin assessed as change in fluorescence intensity at 1 uM after 45 mins by fluorescence quenching analysis relative to control
[14] = Binding affinity to 5'-CCGGGGGG-3' DNA hairpin assessed as change in fluorescence intensity at 1 uM after 45 mins by fluorescence quenching analysis relative to control
[15] = Binding affinity to 5'-GCGGGCCC-3' DNA hairpin assessed as change in fluorescence intensity at 1 uM after 45 mins by fluorescence quenching analysis relative to control
[16] = Binding affinity to 5'-CCCCGCGC-3' DNA hairpin assessed as change in fluorescence intensity at 1 uM after 45 mins by fluorescence quenching analysis relative to control
[17] = Binding affinity to 5'-CGCCCCCC-3' DNA hairpin assessed as change in fluorescence intensity at 1 uM after 45 mins by fluorescence quenching analysis relative to control
[18] = Binding affinity to 5'-GCGCGCGG-3' DNA hairpin assessed as change in fluorescence intensity at 1 uM after 45 mins by fluorescence quenching analysis relative to control
[19] = Binding affinity to 5'-GGCGCCGC-3' DNA hairpin assessed as change in fluorescence intensity at 1 uM after 45 mins by fluorescence quenching analysis relative to control
[20] = Binding affinity to 5'-GGCGCCCC-3' DNA hairpin assessed as change in fluorescence intensity at 1 uM after 45 mins by fluorescence quenching analysis relative to control
[21] = Binding affinity to 5'-GCCCCGGG-3' DNA hairpin assessed as change in fluorescence intensity at 1 uM after 45 mins by fluorescence quenching analysis relative to control
[22] = Binding affinity to 5'-CGCCGCGC-3' DNA hairpin assessed as change in fluorescence intensity at 1 uM after 45 mins by fluorescence quenching analysis relative to control
[23] = Binding affinity to 5'-GGGCGCGG-3' DNA hairpin assessed as change in fluorescence intensity at 1 uM after 45 mins by fluorescence quenching analysis relative to control
[24] = Binding affinity to 5'-GCCCGGCC-3' DNA hairpin assessed as change in fluorescence intensity at 1 uM after 45 mins by fluorescence quenching analysis relative to control
[25] = Binding affinity to 5'-GCGCCCCC-3' DNA hairpin assessed as change in fluorescence intensity at 1 uM after 45 mins by fluorescence quenching analysis relative to control
[26] = Binding affinity to 5'-GCGGGCGG-3' DNA hairpin assessed as change in fluorescence intensity at 1 uM after 45 mins by fluorescence quenching analysis relative to control
[27] = Binding affinity to 5'-CGGGGCCG-3' DNA hairpin assessed as change in fluorescence intensity at 1 uM after 45 mins by fluorescence quenching analysis relative to control
[28] = Binding affinity to 5'-GGCCCGCG-3' DNA hairpin assessed as change in fluorescence intensity at 1 uM after 45 mins by fluorescence quenching analysis relative to control
[29] = Binding affinity to 5'-CGCCCGGC-3' DNA hairpin assessed as change in fluorescence intensity at 1 uM after 45 mins by fluorescence quenching analysis relative to control
[30] = Binding affinity to 5'-GCGCGCCG-3' DNA hairpin assessed as change in fluorescence intensity at 1 uM after 45 mins by fluorescence quenching analysis relative to control
[31] = Binding affinity to 5'-GCGCCCGG-3' DNA hairpin assessed as change in fluorescence intensity at 1 uM after 45 mins by fluorescence quenching analysis relative to control
[32] = Binding affinity to 5'-GCCCCGCG-3' DNA hairpin assessed as change in fluorescence intensity at 1 uM after 45 mins by fluorescence quenching analysis relative to control
[33] = Binding affinity to 5'-CCGGGCGG-3' DNA hairpin assessed as change in fluorescence intensity at 1 uM after 45 mins by fluorescence quenching analysis relative to control
[34] = Binding affinity to 5'-CGGCCGGC-3' DNA hairpin assessed as change in fluorescence intensity at 1 uM after 45 mins by fluorescence quenching analysis relative to control
[35] = Binding affinity to 5'-GGGCCCCG-3' DNA hairpin assessed as change in fluorescence intensity at 1 uM after 45 mins by fluorescence quenching analysis relative to control
[36] = Binding affinity to 5'-GGGCGGCC-3' DNA hairpin assessed as change in fluorescence intensity at 1 uM after 45 mins by fluorescence quenching analysis relative to control

NCC1O[C@H](O[C@H]2[C@@H](O)[C@H](O[C@@H]3[C@@H](O)[C@H](N)C[C@H](N)[C@H]3O[C@H]3O[C@H](CN)[C@@H](O)[C@H](O)[C@H]3N)O[C@@H]2CSCCNC(=O)CCSCC(=O)Nc2ccc(-c3c4ccc(=O)cc-4oc4cc(O)ccc34)c(C(=O)O)c2)[C@H](N)[C@@H](O)[C@@H]1O (stereo partly specified)
Activity [1]: 35.9%
Activity [2]: 52.4%
Activity [3]: 38.9%
Activity [4]: 47.6%
Activity [5]: 33.2%
Activity [6]: 41.4%
Activity [7]: 15%
Activity [8]: 50.8%
Activity [9]: 40.6%
Activity [10]: 30.9%
Activity [11]: 44.1%
Activity [12]: 42.5%
Activity [13]: 53.8%
Activity [14]: 45.1%
Activity [15]: 47.8%
Activity [16]: 41.4%
Activity [17]: 25.1%
Activity [18]: 51.2%
Activity [19]: 48.4%
Activity [20]: 37.8%
Activity [21]: 28.8%
Activity [22]: 46.6%
Activity [23]: 51.5%
Activity [24]: 36.2%
Activity [25]: 45.7%
Activity [26]: 45%
Activity [27]: 41.1%
Activity [28]: 34.3%
Activity [29]: 46.6%
Activity [30]: 44.2%
Activity [31]: 49.3%
Activity [32]: 36.7%
Activity [33]: 50.1%
Activity [34]: 44.9%
Activity [35]: 18.1%
Activity [36]: 49.4%
